Results taken from ChEMBL document CHEMBL5113371, “Lipolytic enzymes inhibitors: A new way for antibacterial drugs discovery” (Eur J Med Chem, 2021).
Converted amounts (≈) assume the structure as drawn.

Legend:
RAW264.7 [1] = assay: Cytotoxicity against mouse RAW264.7 cells; type: functional
[2] = tested on: Mycobacterium tuberculosis; assay: Inhibition of Mycobacterium tuberculosis Lipy assessed as pomegranate oil TAG lipolysis at 4 times molar excess of inhibitor concentration related to 1 mole of enzyme incubated for 30 mins by microtitre plate assay
[3] = tested on: Mycobacterium tuberculosis; assay: Inhibition of Mycobacterium tuberculosis Lipy incubated for 30 mins by UV spectrophotometric analysis
[4] = tested on: Mycobacterium tuberculosis; assay: Inhibition of Mycobacterium tuberculosis Lipy assessed as pomegranate oil TAG lipolysis at 20 times molar excess of inhibitor concentration related to 1 mole of enzyme incubated for 30 mins by microtitre plate assay
[5] = tested on: Mycobacteroides abscessus; assay: Antibacterial activity against Mycobacterium abscessus CIP 104536T rough morphotype incubated for 1 to 14 days; type: functional; details: time 1-14 day
[6] = tested on: Mycobacteroides abscessus; assay: Antibacterial activity against Mycobacterium abscessus CIP 104536T smooth morphotype incubated for 1 to 14 days; type: functional; details: time 1-14 day
RAW264.7 [7] = assay: (§1) Antibacterial activity against Mycobacterium Mycobacterium abscessus CIP 104536T infected in mouse RAW264.7 cells assessed as […] incubated for 4 to 5 days; type: functional; details: Mycobacteroides abscessus, time 4-5 day
[8] = as §1; type: functional; details: Mycobacteroides abscessus, time 4-5 day
[9] = Inhibition of Mycobacterium tuberculosis Cut6
Mycobacterium = assay: Antibacterial activity against Mycobacterium by REMA assay; type: functional
[10] = tested on: Mycobacterium tuberculosis; assay: Antibacterial activity against Mycobacterium tuberculosis incubated for 2 to 3 weeks; type: functional; details: time 2-3 weeks
[11] = tested on: Mycobacterium tuberculosis; assay: Antibacterial activity against Mycobacterium tuberculosis; type: functional
[12] = Antibacterial activity against Mycobacterium Mycobacterium abscessus CIP 104536T infected in mouse RAW264.7 cells assessed as bacterial viability at 30 uM incubated for 4 to 5 days relative to control; type: functional, Mycobacteroides abscessus; details: time 4-5 day

Structure (SMILES) | CC50 (RAW264.7 [1]) [µM] | inhibition [2] [%] | I50 [3] [molar excess] | inhibition [4] [%] | MIC50 [5] [µM] | MIC50 [6] [µM] | also measured
CC(C)COc1nn(-c2ccccc2)c(=O)o1 | > 100 | 31.6 | 9.2 | 47.9 |  |  | 
CCCCCCCCCCCCCCCCC1=C(C(=O)OC)CCOP(=O)(OC)O1 (stereo unspecified) |  |  |  |  | 6.9 (≈ 3.08 µg/mL) | 60 (≈ 26.8 µg/mL) | MIC50 (RAW264.7 [7]): NE
CCCCCCCCCC[C@H]1CC[P@@](=O)(OC)OC(C)=C1C(=O)OC | > 100 |  |  |  | > 100 | > 100 | MIC50 [8]: 65.3 µM (≈ 24.5 µg/mL)
CCCCCCCCCCC[C@@H](C[C@@H]1OC(=O)[C@H]1CCCCCC)OC(=O)[C@@H]1CCCN1C(C)=O |  |  |  |  |  |  | IC50 [9]: 0.2 µM
CCCCCCCCCCCCCCCCO[P@]1(=O)OC[C@@H]2COC(=O)C2=C(C)O1 | > 100 |  |  |  |  |  | 
CCCCCC(CC)Oc1nn(-c2cccc(Oc3ccccc3)c2)c(=O)o1 (stereo unspecified) |  | 89.6 | 0.73 | 94.8 |  |  | 
CCOc1nn(-c2cccc(Oc3ccccc3)c2)c(=O)o1 |  | 21.7 | 6.5 | 53.8 |  |  | 
CCCCCCCCCCCCCCCCOP1(=O)OCCC(C(=O)OC)=C(C)O1 (stereo unspecified) | > 100 |  |  |  | 0.37 (≈ 0.165 µg/mL) | 12.7 (≈ 5.67 µg/mL) | MIC (Mycobacterium): 2 µg/mL (≈ 4.48 µM); MIC50 (RAW264.7 [7]): NE
COc1nn(-c2cccc(Oc3ccccc3)c2)c(=O)o1 |  | 63.6 | 2.4 | 85.9 |  |  | MIC [10]: 50 µM (≈ 14.2 µg/mL)
CCCCCCOc1nn(-c2ccc(Oc3ccccc3)cc2)c(=O)o1 | > 100 | 38.7 | 2.9 | 77.2 |  |  | 
CCCCCCOc1nn(-c2cccc(Oc3ccccc3)c2)c(=O)o1 |  | 39.9 | 3.3 | 76.5 |  |  | 
CCCCC[C@H]1CC[P@@](=O)(OC)OC(C)=C1C(=O)OC | > 100 |  |  |  |  |  | 
CCCCCCCCCC[C@@H]1CC[P@@](=O)(OC)OC(C)=C1C(=O)OC | > 100 |  |  |  | > 100 | > 100 | MIC50 [8]: 29.3 µM (≈ 11 µg/mL)
CCCCCCCCCCC[C@@H](C[C@@H]1OC(=O)[C@H]1CCCCCC)OC(=O)[C@H]1CCCN1C=O |  |  |  |  |  |  | IC50 [9]: 0.2 µM
CCCCCCCCCCC[C@@H](C[C@@H]1OC(=O)[C@H]1CCCCCC)OC(=O)[C@H]1CCCN1C(C)=O |  |  |  |  |  |  | IC50 [9]: 0.2 µM
CCCCCCCCCCC[C@@H](C[C@@H]1OC(=O)[C@H]1CCCCCC)OC(=O)[C@@H]1CSCN1C(C)=O |  |  |  |  |  |  | IC50 [9]: 0.2 µM
C=CCCCCCCC[C@H]1C(=O)O[C@@H]1CCCCCNC(=O)c1ccc(N(C)C)cc1 |  |  |  |  |  |  | INH [11]: 1.6 µM
CCCCCCCCCCC[C@@H](C[C@@H]1OC(=O)[C@H]1CCCCCC)OC(=O)[C@H](CC(C)C)NC=O [ORLISTAT] |  | 26.8 | 7.1 | 87.6 |  |  | IC50 [9]: 3.8 µM
O=c1oc(OCCOCc2ccccc2)nn1-c1ccc(Oc2ccccc2)cc1 | > 100 | 97 | 0.59 | 98.4 |  |  | 
COc1nn(-c2ccc(Oc3ccccc3)cc2)c(=O)o1 |  | 60.8 | 0.93 | 79.4 | > 200 | 88.2 (≈ 25.1 µg/mL) | MIC50 [8]: 75.2 µM (≈ 21.4 µg/mL)

Structure (SMILES) | CC50 (RAW264.7 [1]) [µM] | inhibition [2] [%] | I50 [3] [molar excess] | inhibition [4] [%] | MIC50 [5] [µM] | MIC50 [6] [µM] | also measured
CC(C)COc1nn(-c2cccc(Oc3ccccc3)c2)c(=O)o1 |  | 37.4 | 3.9 | 49.4 |  |  | 
CCCCCCCCCCCCOc1nn(-c2cccc(Oc3ccccc3)c2)c(=O)o1 |  | 88.7 | 0.77 | 90.4 |  |  | 
CCCCCCCCCCCCCCCCO[P@]1(=O)OC[C@H]2COC(=O)C2=C(C)O1 | > 100 |  |  |  |  |  | 
NNC(=O)c1ccncc1 [ISONIAZID] | > 150 |  |  |  |  |  | 
CC(C)COc1nn(-c2ccc(Oc3ccccc3)cc2)c(=O)o1 | > 100 | 33.8 | > 40 | 41.6 | 53.2 (≈ 17.4 µg/mL) | 33 (≈ 10.8 µg/mL) | MIC50 [8]: < 30 µM; Activity [12]: 59%
CCCCOc1nn(-c2cccc(Oc3ccccc3)c2)c(=O)o1 |  | 15.6 | > 40 | 63.7 |  |  | 
CCCCCCCCOc1nn(-c2cccc(Oc3ccccc3)c2)c(=O)o1 |  | 83.2 | 0.71 | 86.6 |  |  | 
CCCCCCCCCCC1=C(C(=O)OC)CCOP(=O)(OC)O1 (stereo unspecified) |  |  |  |  | 13.9 (≈ 5.04 µg/mL) | 85 (≈ 30.8 µg/mL) | MIC50 (RAW264.7 [7]): NE
CCCCCCCCCCCC[C@@H]1CC[P@@](=O)(OC)OC(C)=C1C(=O)OC | > 100 |  |  |  | > 100 | > 100 | MIC50 [8]: 7.9 µM (≈ 3.18 µg/mL)
COCCOc1nn(-c2cccc(Oc3ccccc3)c2)c(=O)o1 |  | 92.4 | 0.69 | 93.7 |  |  | 
NCC[C@H](O)C(=O)N[C@@H]1C[C@H](N)[C@@H](O[C@H]2O[C@H](CN)[C@@H](O)[C@H](O)[C@H]2O)[C@H](O)[C@H]1O[C@H]1O[C@H](CO)[C@@H](O)[C@H](N)[C@H]1O [AMIKACIN] |  |  |  |  | 7.4 (≈ 4.33 µg/mL) | 3.9 (≈ 2.28 µg/mL) | 
O=c1oc(OCCOCc2ccccc2)nn1-c1cccc(Oc2ccccc2)c1 |  | 88 | 0.72 | 90.2 |  |  | 
O=c1oc(OCCOCc2ccccc2)nn1-c1ccccc1 | > 100 | 89 | 0.61 | 92.2 |  |  | 
CO[C@H]1/C=C/O[C@@]2(C)Oc3c(C)c(O)c4c(O)c(c(/C=N/N5CCN(C)CC5)c(O)c4c3C2=O)NC(=O)/C(C)=C\C=C\[C@H](C)[C@H](O)[C@@H](C)[C@@H](O)[C@@H](C)[C@H](OC(C)=O)[C@@H]1C [RIFAMPIN] | 24 |  |  |  |  |  | 
CCCCCCOc1nn(-c2ccccc2)c(=O)o1 | > 100 | 35 | > 40 | 38.8 |  |  | 
CCCCCCCCCCC[C@@H](C[C@@H]1OC(=O)[C@H]1CCCCCC)OC(=O)[C@@H]1CCCN1C=O |  |  |  |  |  |  | IC50 [9]: 0.2 µM
C[C@@H](O)[C@H]1C(=O)N2C(C(=O)O)=C(SCCNC=N)C[C@H]12 [IMIPENEM ANHYDROUS] |  |  |  |  | 29.9 (≈ 8.95 µg/mL) | 11.3 (≈ 3.38 µg/mL) | MIC50 [8]: 28.3 µM (≈ 8.47 µg/mL)
CCCCCCCCCCCC[C@H]1CC[P@@](=O)(OC)OC(C)=C1C(=O)OC | > 20 |  |  |  | > 100 | > 100 | MIC50 [8]: 2 µM (≈ 0.805 µg/mL)
COc1nn(-c2ccccc2)c(=O)o1 |  | 34.4 | 10.9 | 81.8 | > 200 | > 200 | MIC50 [8]: 36.5 µM (≈ 7.01 µg/mL)
CCCCCCCCCCOc1nn(-c2cccc(Oc3ccccc3)c2)c(=O)o1 |  | 91.5 | 0.67 | 94.2 |  |  | 
